Measured values reported in ChEMBL document CHEMBL4251603, “Structure-activity studies on N-Substituted tranylcypromine derivatives lead to selective inhibitors of lysine specific demethylase 1 (LSD1) and potent inducers of leukemic cell differentiation” (Eur J Med Chem, 2018).
Values belong to the molecule of their own block, whether it stands above or below them. Activity calls are given as the source filed them. The rule behind the calls is not given here.

Assays:
[1] = target: T1, Lysine-specific histone demethylase 1A (Homo sapiens, UniProt O60341); details: 100 uM
[2] = target: T2, Amine oxidase [flavin-containing] B (Homo sapiens, UniProt P27338); experiment: Inhibition of MAO-B (unknown origin) using beetle luciferin derived luminogenic substrate preincubated for 15 mins followed by substrate addition measured after 60 mins by MAO-Glo assay
T2 sequence (P27338 whole entry): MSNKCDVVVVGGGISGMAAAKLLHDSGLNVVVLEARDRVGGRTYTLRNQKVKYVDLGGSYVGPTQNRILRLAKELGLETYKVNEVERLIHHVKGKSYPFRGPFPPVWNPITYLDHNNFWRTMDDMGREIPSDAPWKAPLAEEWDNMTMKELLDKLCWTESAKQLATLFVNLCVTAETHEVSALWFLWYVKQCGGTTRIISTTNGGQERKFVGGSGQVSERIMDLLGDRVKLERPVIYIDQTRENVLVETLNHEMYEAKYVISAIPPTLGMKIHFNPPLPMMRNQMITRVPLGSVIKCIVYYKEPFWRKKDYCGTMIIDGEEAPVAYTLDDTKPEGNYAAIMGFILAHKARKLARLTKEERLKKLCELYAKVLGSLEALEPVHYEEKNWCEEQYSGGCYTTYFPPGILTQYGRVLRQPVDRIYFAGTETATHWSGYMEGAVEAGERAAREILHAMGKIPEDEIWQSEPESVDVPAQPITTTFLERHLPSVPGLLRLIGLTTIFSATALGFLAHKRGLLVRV

[3] = target: T3, Amine oxidase [flavin-containing] A (Homo sapiens, UniProt P21397)
T3 sequence (P21397 whole entry): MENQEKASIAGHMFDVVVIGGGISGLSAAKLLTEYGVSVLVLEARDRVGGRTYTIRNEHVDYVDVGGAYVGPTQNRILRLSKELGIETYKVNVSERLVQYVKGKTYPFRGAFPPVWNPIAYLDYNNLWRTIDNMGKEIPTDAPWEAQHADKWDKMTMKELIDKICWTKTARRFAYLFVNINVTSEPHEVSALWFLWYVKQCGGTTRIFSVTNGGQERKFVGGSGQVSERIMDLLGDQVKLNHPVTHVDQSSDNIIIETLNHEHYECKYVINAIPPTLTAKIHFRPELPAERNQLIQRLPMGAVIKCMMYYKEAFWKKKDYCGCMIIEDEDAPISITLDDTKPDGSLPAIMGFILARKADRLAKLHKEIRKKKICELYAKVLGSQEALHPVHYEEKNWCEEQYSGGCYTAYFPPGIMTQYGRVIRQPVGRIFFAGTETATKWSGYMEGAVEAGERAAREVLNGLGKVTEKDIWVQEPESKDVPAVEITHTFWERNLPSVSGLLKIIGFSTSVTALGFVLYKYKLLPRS

MAO-B [4] = target: T4, MAO-B (Homo sapiens, UniProt P27338); experiment: (§1) Inhibition of MAO-B (unknown origin) at 10 uM using beetle luciferin derived luminogenic substrate preincubated for 15 mins followed by substrate addition measured after 60 mins by MAO-Glo assay relative to control; details: MAO-B enzyme (unknown origin), probe beetle luciferin derived luminogenic substrate
T4 sequence (P27338 whole entry): T2 sequence (P27338 whole entry)

[5] = target: T2, Amine oxidase [flavin-containing] B; experiment: as §1; details: 1 h, 10 µM
MAO-A [6] = target: T5, MAO-A (Homo sapiens, UniProt P21397); experiment: in vitro; details: MAO-A enzyme (unknown origin), probe beetle luciferin derived luminogenic substrate
T5 sequence (P21397 whole entry): T3 sequence (P21397 whole entry)

MAO-A [7] = target: T5, MAO-A; experiment: Inhibition of MAO-A (unknown origin) at 1 uM using beetle luciferin derived luminogenic substrate preincubated for 15 mins followed by substrate addition measured after 60 mins by MAO-Glo assay relative to control; details: MAO-A enzyme (unknown origin), probe beetle luciferin derived luminogenic substrate
MAO-B [8] = target: T4, MAO-B; experiment: in vitro; details: MAO-B enzyme (unknown origin), probe beetle luciferin derived luminogenic substrate
THP-1 [9] = experiment: Inhibition of colony formation in human THP1 cells at 0.5 uM after […] by light microscopic method relative to control; format: functional
[10] = target: Lysine-specific histone demethylase 1A (Mus musculus) (UniProt Q6ZQ88); experiment: Inhibition of LSD1 in mouse Hoxa9/Meis1 transformed progenitor cells assessed as induction of granulocytic differentiation at 50 to 100 nM up to 96 hrs by pappenheim staining based assay
[11] = target: Lysine-specific histone demethylase 1A (Mus musculus) (UniProt Q6ZQ88); experiment: Inhibition of LSD1 in mouse Hoxa9/Meis1 transformed progenitor cells assessed as reduction in c-Kit positive cells at 100 nM after 96 hrs by flow cytometry; format: cell-based
MAO-B [12] = target: T4, MAO-B; experiment: Inhibition of MAO-B (unknown origin) at 250 uM using beetle luciferin derived luminogenic substrate preincubated for 15 mins followed by substrate addition measured after 60 mins by MAO-Glo assay relative to control; details: MAO-B enzyme (unknown origin), probe beetle luciferin derived luminogenic substrate
THP-1 [13] = experiment: Inhibition of colony formation in human THP1 cells at 0.5 to 50 uM after […] by light microscopic method; format: functional, cell-based
[14] = target: T1, Lysine-specific histone demethylase 1A; details: 10 uM
[15] = target: T1, Lysine-specific histone demethylase 1A
[16] = target: T1, Lysine-specific histone demethylase 1A; remark: listed apart in the source

inhibition [1]: inactive
IC50 [2]: 56.2 µM
IC50 [3]: 0.78 µM
Compound: C[C@@H]1[C@H](NCc2ccc(Cl)cc2Cl)[C@H]1c1ccccc1 (relative stereo)

Compound: COc1ccccc1CN[C@H]1C[C@@H]1c1ccccc1 (relative stereo)
inhibition at 1 h, 10 µM (MAO-B [4]): 36%

inhibition (INH) [5]: Not Active
Compound: c1ccc([C@H]2C[C@@H]2NCc2cccnc2)cc1 (relative stereo)

Compound: Fc1ccccc1CN[C@H]1C[C@@H]1c1ccccc1 (relative stereo)
inhibition at 1 h, 10 µM (MAO-A [6]): 20%
inhibition at 1 h, 10 µM (MAO-B [4]): 16%

Compound: CCc1ccc(CN[C@H]2C[C@@H]2c2ccccc2)cc1 (relative stereo)
inhibition at 1 h, 1 µM (MAO-A [7]): 33%
inhibition at 1 h, 1 µM (MAO-B [8]): 12%

Compound: Clc1ccc(CN[C@H]2C[C@@H]2c2ccccc2)cc1 (relative stereo)
inhibition at 0.5 µM (THP-1 [9]): 80%
inhibition [10]: Active
IC50 [2]: 14.1 µM
inhibition [11]: Active
IC50 [3]: 0.206 µM

Compound: Clc1cc(Cl)cc(CN[C@H]2C[C@@H]2c2ccccc2)c1 (relative stereo)
inhibition at 1 h, 1 µM (MAO-A [7]): 30%
inhibition at 1 h, 1 µM (MAO-B [8]): 17%

Compound: Brc1cccc(CN[C@H]2C[C@@H]2c2ccccc2)c1 (relative stereo)
inhibition at 1 h, 1 µM (MAO-A [7]): 38%

Compound: Fc1cc(Br)ccc1CN[C@H]1C[C@@H]1c1ccccc1 (relative stereo)
inhibition at 1 h, 1 µM (MAO-A [7]): 27%

inhibition at 1 h, 1 µM (MAO-A [7]): 100%
inhibition at 1 h, 1 µM (MAO-B [8]): 44%
Compound: Brc1ccc(COc2ccc(CN[C@H]3C[C@@H]3c3ccccc3)cc2)cc1 (relative stereo)

Compound: C[C@H]1[C@@H](N)[C@H]1c1ccccc1.Cl (relative stereo)
inhibition [1]: inactive
inhibition (INH) [5]: Not Active

inhibition at 1 h, 250 µM (MAO-B [12]): 50%
IC50 [3]: 24.7 µM
Compound: NC(=O)c1ccc(CN[C@H]2C[C@@H]2c2ccccc2)cc1 (relative stereo)

Compound: C[C@@H]1[C@H](N)[C@H]1c1ccccc1.Cl (relative stereo)
inhibition [1]: inactive
inhibition (INH) [5]: Not Active

Compound: Fc1ccc(CN[C@H]2C[C@@H]2c2ccccc2)cc1F (relative stereo)
inhibition at 1 h, 1 µM (MAO-A [7]): 43%

IC50 [2]: 2.2 µM
inhibition [14]: inactive
IC50 [3]: 0.237 µM
Tm [15]: 45.6 °C
Compound: C[C@@H]1[C@H](NCc2cccc([N+](=O)[O-])c2)[C@H]1c1ccccc1 (relative stereo)
inhibition (THP-1 [13]): inactive

Compound: Clc1ccc(CN[C@H]2C[C@@H]2c2ccccc2)c(Cl)c1 (relative stereo)
inhibition at 1 h, 10 µM (MAO-A [6]): 73%
inhibition at 1 h, 10 µM (MAO-B [4]): 11%

inhibition (INH) [5]: Not Active
Compound: COc1ncccc1CN[C@H]1C[C@@H]1c1ccccc1

Compound: Ic1ccccc1CN[C@H]1C[C@@H]1c1ccccc1 (relative stereo)
inhibition at 1 h, 1 µM (MAO-A [7]): 12%
inhibition at 1 h, 1 µM (MAO-B [8]): 16%

IC50 [2]: 95.7 µM
IC50 [3]: 27.9 µM
Compound: NC(=O)c1cccc(CN[C@H]2C[C@@H]2c2ccccc2)c1 (relative stereo)

inhibition at 1 h, 1 µM (MAO-A [7]): 100%
inhibition at 1 h, 1 µM (MAO-B [8]): 32%
Compound: Brc1ccc(COc2cccc(CN[C@H]3C[C@@H]3c3ccccc3)c2)cc1 (relative stereo)

inhibition at 1 h, 10 µM (MAO-B [4]): 14%
IC50 [3]: 41.4 µM
IC50 [16]: Not Active
Compound: COc1ncccc1CN[C@H]1[C@@H](C)[C@@H]1c1ccccc1 (relative stereo)

Compound: CN(C)c1ccc(CN[C@H]2C[C@@H]2c2ccccc2)cc1 (relative stereo)
inhibition at 1 h, 1 µM (MAO-A [7]): 30%

Compound: Brc1ccc(CN[C@H]2C[C@@H]2c2ccccc2)cc1 (relative stereo)
inhibition at 1 h, 10 µM (MAO-A [6]): 43%
inhibition at 1 h, 10 µM (MAO-B [4]): 27%

Compound: Brc1ccccc1CN[C@H]1C[C@@H]1c1ccccc1 (relative stereo)
inhibition at 1 h, 10 µM (MAO-A [6]): 47%
inhibition at 1 h, 10 µM (MAO-B [4]): 24%
